Assay results taken from ChEMBL document CHEMBL4808199, “Cyclopentenone-Containing Tetrahydroquinoline and Geldanamycin Alkaloids from Streptomyces malaysiensis as Potential Anti-Androgens against Prostate Cancer Cells” (J Nat Prod, 2021).
The source made the active and inactive calls. The rule behind the calls is not given here.

Tests used:
[1] = system: MDA-MB-231; assay: Cytotoxicity against human MDA-MB-231 cells; format: functional, cell-based
[2] = system: LNCaP C4-2B; assay: Cytotoxicity against human C42B cells; format: functional, cell-based
[3] = system: CWR22R; assay: Cytotoxicity against human 22Rv1 cells; format: functional, cell-based
[4] = system: NCI-H446; assay: Cytotoxicity against human H446 cells; format: functional, cell-based
[5] = system: MGC-803; assay: Cytotoxicity against human MGC-803 cells; format: functional, cell-based
[6] = system: RWPE-1; assay: Cytotoxicity against human RWPE-1 cells; format: cell-based
[7] = Selective index, ratio of IC50 for human RWPE1 to IC50 for human LNCaP C4-2B cells; format: toxicity; conditions: RWPE1 cells and LNCaP C4-2B cells, read-out: Selectivity Index
[8] = system: CWR22R; assay: Inhibition of androgen receptor protein expression in human 22Rv1 cells incubated for […] by Immunoblotting analysis; format: functional, cell-based
[9] = system: LNCaP C4-2B; assay: Inhibition of androgen receptor protein expression in human C4-2B cells incubated for […] by Immunoblotting analysis; format: functional, cell-based
[10] = system: LNCaP C4-2B; assay: Inhibition of androgen receptor mRNA expression in human C4-2B cells incubated for […] by qRT-PCR analysis; format: functional, cell-based
[11] = system: CWR22R; assay: Induction of apoptosis in human 22Rv1 cells assessed as inhibition of Cmyc protein expression at 0.15 to 0.6 uM incubated for […] by Immunoblotting analysis; format: functional, cell-based; conditions: dose 0.15-0.6 µM, time […]
[12] = system: LNCaP C4-2B; assay: Induction of apoptosis in human C4-2B cells assessed as inhibition of Cmyc protein expression at 0.075 to 0.3 uM incubated for […] by Immunoblotting analysis; format: functional, cell-based; conditions: dose 0.075-0.3 µM
[13] = Selective index, ratio of IC50 for human RWPE1 to IC50 for human H446 cells
[14] = system: LNCaP C4-2B; assay: Induction of cell cycle arrest in human C4-2B cells assessed as accumulation of cells at G0/G1 phase at 0.3 uM incubated for 48 hrs by RED-B-HLi fluorescence assay (reference value: 41.57%); format: functional
[15] = system: LNCaP C4-2B; assay: Induction of cell cycle arrest in human C4-2B cells assessed as accumulation of cells at S phase at 0.3 uM incubated for 48 hrs by RED-B-HLi fluorescence assay (reference value: 42.69%); format: functional
[16] = system: LNCaP C4-2B; assay: Induction of cell cycle arrest in human C4-2B cells assessed as accumulation of cells at G2-M phase at 0.3 uM incubated for 48 hrs by RED-B-HLi fluorescence assay (reference value: 15.74%); format: functional
[17] = system: LNCaP C4-2B; assay: Induction of apoptosis in human C4-2B cells assessed as increase in caspase 3/7 activity at 0.3 uM after 24 hrs relative to control; format: functional, cell-based
[18] = system: CWR22R; assay: Induction of apoptosis in human 22Rv1 cells assessed as increase in caspase 3/7 activity at 0.3 uM after 24 hrs relative to control; format: functional, cell-based
[19] = system: LNCaP C4-2B; assay: Induction of apoptosis in human C4-2B cells assessed as increase in cleaved 7 level after 24 hrs by immunoblotting analysis relative to control; format: functional, cell-based
[20] = system: CWR22R; assay: Induction of apoptosis in human 22Rv1 cells assessed as increase in cleaved 7 level after 24 hrs by immunoblotting analysis relative to control; format: functional, cell-based
[21] = system: LNCaP C4-2B; assay: Induction of apoptosis in human C4-2B cells assessed as increase in cleaved PARP1 level after 24 hrs by immunoblotting analysis relative to control; format: functional, cell-based
[22] = system: CWR22R; assay: Induction of apoptosis in human 22Rv1 cells assessed as increase in cleaved PARP1 level after 24 hrs by immunoblotting analysis relative to control; format: functional, cell-based
[23] = system: LNCaP C4-2B; assay: Inhibition of colony formation in human C4-2B cells at 0.075 to 0.3 uM for 12 days by crystal violet staining based assay; format: functional, cell-based; conditions: dose 0.075-0.3 µM, time 12.0 day
[24] = system: CWR22R; assay: Inhibition of colony formation in human 22Rv1 cells at 0.075 to 0.3 uM for 12 days by crystal violet staining based assay; format: functional, cell-based; conditions: dose 0.075-0.3 µM, time 12.0 day
[25] = system: CWR22R; assay: Inhibition of androgen receptor mRNA expression in human 22Rv1 cells incubated for […] by […] analysis; format: functional, cell-based
[26] = system: LNCaP C4-2B; assay: Induction of apoptosis in human C4-2B cells assessed as inhibition of Cyclin E protein expression at 0.075 to 0.3 uM incubated for […] by Immunoblotting analysis; format: functional, cell-based; conditions: dose 0.075-0.3 µM
[27] = system: CWR22R; assay: Induction of apoptosis in human 22Rv1 cells assessed as inhibition of Cyclin E protein expression at 0.15 to 0.6 uM incubated for […] by Immunoblotting analysis; format: functional, cell-based; conditions: dose 0.15-0.6 µM
[28] = system: LNCaP C4-2B; assay: Induction of apoptosis in human C4-2B cells assessed as inhibition of KLK2 mRNA expression at 0.075 to 0.3 uM incubated for […] by qRT-PCR analysis; format: functional, cell-based; conditions: dose 0.075-0.3 µM
[29] = system: CWR22R; assay: Induction of apoptosis in human 22Rv1 cells assessed as inhibition of KLK2 mRNA expression at 0.15 to 0.6 uM incubated for […] by qRT-PCR analysis; format: functional, cell-based; conditions: dose 0.15-0.6 µM
[30] = system: LNCaP C4-2B; assay: Induction of apoptosis in human C4-2B cells assessed as inhibition of KLK3 mRNA expression at 0.075 to 0.3 uM incubated for […] by qRT-PCR analysis; format: functional, cell-based; conditions: dose 0.075-0.3 µM
[31] = system: CWR22R; assay: Induction of apoptosis in human 22Rv1 cells assessed as inhibition of KLK3 mRNA expression at 0.15 to 0.6 uM incubated for […] by qRT-PCR analysis; format: functional, cell-based; conditions: dose 0.15-0.6 µM
[32] = system: LNCaP C4-2B; assay: Induction of morphological changes in human C4-2B cells assessed as decrease in cell size incubated for 24 hrs by microscopy; format: functional, cell-based
[33] = system: LNCaP C4-2B; assay: Induction of morphological changes in human C4-2B cells assessed as increase in intracellular spaces incubated for 24 hrs by microscopy; format: functional, cell-based

In the case of `CO[C@H]1C[C@H](C)Cc2cc(O)cc(c2)NC(=O)/C(C)=C/CC[C@H](OC)[C@@H](OC(N)=O)/C(C)=C/[C@H](C)[C@H]1O`, the IC50 [1] is reported as > 40 µM, the IC50 [2] is reported as 32 µM and the IC50 [3] is reported as 35 µM. The IC50 [4] was 28 µM and the IC50 [5] was > 40 µM.
With `CC[C@@H]1[C@@H](C)O[C@@](OC)([C@@H](C)[C@H](O)[C@H](C)[C@H]2OC(=O)/C=C/C=C/[C@H](C)[C@@H]([C@@H](C)[C@@H](O)[C@H](C)[C@@]3(OC)C[C@@H](OC)[C@H](CC)[C@@H](C)O3)OC(=O)/C=C/C=C/[C@@H]2C)C[C@H]1OC` the IC50 [1] was > 40 µM, the IC50 [2] was > 40 µM and the IC50 [3] was > 40 µM. For the same compound, the IC50 [4] was > 40 µM and the IC50 [5] was > 40 µM.
In the case of `CNC(=O)c1ccc(N2C(=S)N(c3ccc(C#N)c(C(F)(F)F)c3)C(=O)C2(C)C)cc1F` [ENZALUTAMIDE], the IC50 [6] is reported as > 40 µM, the IC50 [3] is reported as 38 µM and the selectivity ratio [7] is reported as > 2.2.
`COC1=C2C[C@@H](C)C[C@H](OC)[C@H](O)[C@@H](C)/C=C(\C)[C@H](OC(N)=O)[C@@H](OC)/C=C\C=C(/C)C(=O)NC(=C(SC)C1=O)C2=O` showed an IC50 [1] of 5.2 µM, an IC50 [2] of 3.6 µM and an IC50 [3] of 3.7 µM. The IC50 [4] was 3.9 µM and the IC50 [5] was 7.9 µM.
In the case of `CC[C@@H]1[C@@H](C)O[C@@](OC)(/C(C)=C/[C@H](C)[C@H]2OC(=O)/C=C/C=C/[C@H](C)[C@@H]([C@@H](C)/C=C(\C)[C@@]3(OC)C[C@@H](OC)[C@H](CC)[C@@H](C)O3)OC(=O)/C=C/C=C/[C@@H]2C)C[C@H]1OC`, the IC50 [1] is reported as 7.2 µM, the IC50 [2] is reported as 14 µM and the IC50 [3] is reported as 23 µM. It also gave an IC50 [4] of 25 µM and an IC50 [5] of 10 µM.
With `COC[C@]1(CCC(C)=C(C)C)Nc2ccc(C(=O)NC3=C(O)CCC3=O)cc2C[C@@H]1Cl` the inhibition [8] was “Active”, the inhibition [9] was “Active” and the inhibition [10] was “Active”. For the same compound, the IC50 [1] was 0.2 µM, the IC50 [6] was 0.21 µM and the Activity [11] was “Active”. The Activity [12] was “Active”, the IC50 [2] was 0.067 µM and the IC50 [3] was 0.27 µM. For the same compound, the IC50 [4] was 0.07 µM, the IC50 [5] was 0.11 µM and the “Selectivity Index” value [13] was 3.1. The Activity [14] was 56.03%, the Activity [15] was 24.3% and the Activity [16] was 19.67%. The Activity [17] was “Active”, the Activity [18] was “Active” and the Activity [19] was “Dose-Dependent Effect”. For the same compound, the Activity [20] was “Dose-Dependent Effect”, the Activity [21] was “Dose-Dependent Effect” and the Activity [22] was “Dose-Dependent Effect”. For the same compound, the inhibition [23] was “Active”, the inhibition [24] was “Active” and the inhibition [25] was “Active”. For the same compound, the Activity [26] was “Active”, the Activity [27] was “Active” and the Activity [28] was “Active”. The Activity [29] was “Active”, the Activity [30] was “Active” and the Activity [31] was “Active”. The Activity [32] was “Active” and the Activity [33] was “Active”.
`COC1=C2C[C@@H](C)C[C@H](OC)[C@H](O)[C@@H](C)/C=C(\C)[C@H](OC(N)=O)[C@@H](OC)/C=C\C=C(/C)C(=O)NC(=CC1=O)C2=O` [GELDANAMYCIN] gave an IC50 [1] of 1.9 µM, an IC50 [6] of 3.8 µM and an IC50 [2] of 0.5 µM. It also gave an IC50 [3] of 0.85 µM, an IC50 [4] of 2.2 µM and an IC50 [5] of 3.3 µM. It also gave a selectivity ratio [7] of 7.6.
`CO[C@H]1/C=C\C=C(/C)C(=O)NC2=CC(=O)C(O)=C(C[C@@H](C)C[C@H](OC)[C@H](O)[C@@H](C)/C=C(\C)[C@@H]1OC(N)=O)C2=O` gave an IC50 [1] of 17 µM, an IC50 [2] of 11 µM and an IC50 [3] of 25 µM. The IC50 [4] was 25 µM and the IC50 [5] was 19 µM.
With `CC[C@@H](/C=C/C(=O)[C@@H](C)[C@H](O)[C@H](C)[C@H]1OC(=O)/C=C/C=C/[C@H](C)[C@@H]([C@@H](C)[C@@H](O)[C@H](C)C(=O)/C=C/[C@H](CC)[C@@H](C)O)OC(=O)/C=C/C=C/[C@@H]1C)[C@@H](C)O` the IC50 [1] was > 40 µM, the IC50 [2] was 25 µM and the IC50 [3] was > 40 µM. The IC50 [4] was 25 µM and the IC50 [5] was > 40 µM.
For `COC(=O)[C@@]1(O)C(OC)=C2C[C@@H](C)C[C@H](OC)[C@H](O)[C@@H](C)/C=C(\C)[C@H](OC(N)=O)[C@@H](OC)/C=C\C=C(/C)C(=O)N[C@@H]1C2=O`, the IC50 [1] was > 40 µM, the IC50 [2] was > 40 µM and the IC50 [3] was > 40 µM. For the same compound, the IC50 [4] was 2.9 µM and the IC50 [5] was > 40 µM.
